{"source": "ChEMBL document CHEMBL1201862", "about": "“PubChem BioAssay data set” (2004)", "key": {"[1]": {"target": "Glycogen synthase kinase-3 beta (Homo sapiens, UniProt P49841)", "sequence (P49841 whole entry)": "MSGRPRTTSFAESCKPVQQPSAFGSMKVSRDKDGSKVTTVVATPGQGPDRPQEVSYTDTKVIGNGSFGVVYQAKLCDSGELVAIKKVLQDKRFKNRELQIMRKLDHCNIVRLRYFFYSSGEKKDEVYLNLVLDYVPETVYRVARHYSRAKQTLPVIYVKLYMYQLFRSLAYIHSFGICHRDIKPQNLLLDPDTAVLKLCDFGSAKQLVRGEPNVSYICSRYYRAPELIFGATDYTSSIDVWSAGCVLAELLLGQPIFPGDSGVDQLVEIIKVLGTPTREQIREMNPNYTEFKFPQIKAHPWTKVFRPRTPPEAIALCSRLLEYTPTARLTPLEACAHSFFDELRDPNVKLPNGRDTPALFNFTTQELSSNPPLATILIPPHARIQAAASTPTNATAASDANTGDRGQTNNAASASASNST", "assay": "Inhibition of Human GSK-3 beta Activity Measured in Biochemical System Using Microfluidics - 2063-05_Inhibitor_Dose_DryPowder_Activity_Set2. [Related pubchem assays (depositor defined):AID2709]"}, "[2]": {"target": "Glycogen synthase kinase-3 alpha (Homo sapiens, UniProt P49840)", "sequence (P49840 whole entry)": "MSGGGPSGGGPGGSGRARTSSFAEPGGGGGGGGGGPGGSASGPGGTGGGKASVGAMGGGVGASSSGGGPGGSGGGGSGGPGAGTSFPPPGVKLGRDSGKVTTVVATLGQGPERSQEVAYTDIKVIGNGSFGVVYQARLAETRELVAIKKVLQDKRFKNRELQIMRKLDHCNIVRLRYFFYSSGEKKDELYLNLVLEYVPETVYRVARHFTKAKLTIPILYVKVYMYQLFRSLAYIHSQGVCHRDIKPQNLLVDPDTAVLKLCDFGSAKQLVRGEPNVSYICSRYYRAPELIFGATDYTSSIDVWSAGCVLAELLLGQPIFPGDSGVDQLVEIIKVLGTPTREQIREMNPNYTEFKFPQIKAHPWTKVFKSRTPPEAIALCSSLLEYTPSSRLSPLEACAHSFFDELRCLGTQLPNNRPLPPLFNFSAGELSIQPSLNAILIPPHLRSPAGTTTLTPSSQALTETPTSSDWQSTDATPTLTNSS", "assay": "Inhibition of Human GSK-3 alpha Activity Measured in Biochemical System Using Microfluidics - 2063-06_Inhibitor_Dose_DryPowder_Activity_Set2. [Related pubchem assays (depositor defined):AID2709]"}, "[3]": {"assay": "THP-1 cell cytotoxicity, cytotoxicity control, set 6 (AID 602433)", "format": "functional", "conditions": "Mycobacterium tuberculosis"}, "[4]": {"assay": "viability loss in Vero cells – cell-based, purified and synthesized samples, set 8, cytotoxicity control for M. tuberculosis inhibitor project (AID 602431)", "format": "functional", "conditions": "Mycobacterium tuberculosis"}, "[5]": {"target": "Apoptotic protease-activating factor 1 (Homo sapiens, UniProt O14727)", "sequence (O14727 whole entry)": "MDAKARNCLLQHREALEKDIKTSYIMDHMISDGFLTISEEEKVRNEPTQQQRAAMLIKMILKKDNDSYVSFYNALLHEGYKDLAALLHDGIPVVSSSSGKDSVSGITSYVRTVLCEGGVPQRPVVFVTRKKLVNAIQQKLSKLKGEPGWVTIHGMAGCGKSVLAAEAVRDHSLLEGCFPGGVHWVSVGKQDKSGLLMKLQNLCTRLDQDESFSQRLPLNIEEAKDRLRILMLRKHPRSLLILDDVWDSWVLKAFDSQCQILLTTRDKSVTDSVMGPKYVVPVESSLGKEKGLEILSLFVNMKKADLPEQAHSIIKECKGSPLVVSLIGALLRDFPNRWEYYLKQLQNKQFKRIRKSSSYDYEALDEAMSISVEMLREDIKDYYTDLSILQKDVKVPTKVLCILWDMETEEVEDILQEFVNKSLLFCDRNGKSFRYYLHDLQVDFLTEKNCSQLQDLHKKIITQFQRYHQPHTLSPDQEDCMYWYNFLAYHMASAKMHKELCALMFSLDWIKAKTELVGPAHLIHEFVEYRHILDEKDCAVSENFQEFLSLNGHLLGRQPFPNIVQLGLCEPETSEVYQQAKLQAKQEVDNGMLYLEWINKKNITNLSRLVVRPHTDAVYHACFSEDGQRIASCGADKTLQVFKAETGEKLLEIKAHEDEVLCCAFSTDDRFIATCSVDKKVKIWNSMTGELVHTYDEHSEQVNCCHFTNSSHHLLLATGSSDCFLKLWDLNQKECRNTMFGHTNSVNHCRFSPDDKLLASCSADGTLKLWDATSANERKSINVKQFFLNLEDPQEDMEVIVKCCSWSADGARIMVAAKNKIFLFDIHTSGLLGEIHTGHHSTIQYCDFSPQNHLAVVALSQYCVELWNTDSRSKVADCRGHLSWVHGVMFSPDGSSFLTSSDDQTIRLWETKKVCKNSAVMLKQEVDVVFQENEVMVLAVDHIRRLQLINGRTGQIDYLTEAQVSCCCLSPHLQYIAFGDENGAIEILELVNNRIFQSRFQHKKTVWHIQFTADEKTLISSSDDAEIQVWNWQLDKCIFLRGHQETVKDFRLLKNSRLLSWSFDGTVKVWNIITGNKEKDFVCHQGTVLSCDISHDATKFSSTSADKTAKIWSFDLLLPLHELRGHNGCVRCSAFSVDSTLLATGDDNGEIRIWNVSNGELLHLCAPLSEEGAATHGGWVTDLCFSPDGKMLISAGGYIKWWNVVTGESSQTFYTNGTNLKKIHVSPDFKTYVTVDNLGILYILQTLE", "format": "functional"}, "INS1 [6]": {"system": "INS1", "assay": "beta-cell survival under cytokine stress – INS-1E, ATP luminescence, dry powder, dose response (AID 488844)", "format": "functional, cell-based", "conditions": "Rattus norvegicus"}, "INS1 [7]": {"system": "INS1", "assay": "suppression of NO production in INS-1E cells – cell-based, Griess absorbance, dry powder, set 2, dose response (AID 488868)", "format": "functional", "conditions": "Rattus norvegicus"}, "INS1 [8]": {"system": "INS1", "assay": "INS-1E mitochondrial potential loss inhibitors – cell-based, JC-1 fluorescence, dry powder, set 2, dose response (AID 488867)", "format": "functional", "conditions": "Rattus norvegicus"}}, "note": "Calls of active or inactive are those of the source. Unless noted, the calls are words filed in the database; no cut-off is given here."}
{"smiles": "Nc1nonc1-n1nnc(C(=O)N/N=C/c2ccccc2Cl)c1CN1CCOCC1", "values": [{"measurement": "AC50", "setting": "[1]", "result": "2 µM (active)"}, {"measurement": "AC50", "setting": "[2]", "result": "5.64 µM (active)"}]}
{"smiles": "COc1ccc(NC(=O)NCc2ccc(C(=O)N3CCC(c4ccccc4)CC3)cc2)cc1", "values": [{"measurement": "CC50", "setting": "[3]", "result": "> 98.9 µM (active)"}, {"measurement": "CC50", "setting": "[4]", "result": "91.3 µM (active)"}]}
{"smiles": "Cc1ccc(-n2nc3ccc(N)cc3n2)cc1Cl", "values": [{"measurement": "IC50", "setting": "[5]", "result": "> 100 µM (inactive)"}]}
{"smiles": "COc1ccc(S(=O)(=O)N(C)C[C@@H]2Oc3c(NC(=O)Nc4cccc5ccccc45)cccc3C(=O)N([C@H](C)CO)C[C@H]2C)cc1", "values": [{"measurement": "AC50", "setting": "INS1 [6]", "result": "18.4 µM (active)"}, {"measurement": "AC50", "setting": "INS1 [7]", "result": "74.5 µM (active)"}, {"measurement": "AC50", "setting": "INS1 [8]", "result": "> 235 µM (inactive)"}]}
